Experimental findings from PubChem BioAssay (NCI) are described below.

Test in all cases: NCI tumour cell line growth inhibition, 48 h
For experiment [1], the system named is CAKI-1 renal.
In experiment [2] the test system is EKVX NSCLC.
Experiment [3] has as its system MALME-3M melanoma.
Experiment [4] has as its system MCF7 breast.
Experiment [5] relates to MDA-MB-231 breast.
In experiment [6] the test system is NCI-H23 lung.
The test system of experiment [7] is PC-3 prostate.
Experiment [8] relates to RPMI-8226 leukemia.
Experiment [9] concerns SK-OV-3 ovarian.
The subject of experiment [10] is SF-295 CNS.

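Five compound concentrations were applied to cells in 96-well plates for 48 hours; endpoints were derived by simple linear interpolation of the resulting dose-response curve. At the GI50, growth is halved. TGI marks complete inhibition of growth.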 Bounds are passed on as bounds.

In the case of `CC(C)Nc1ccc(Nc2ccccc2)cc1`, the GI50 was 4.06 µM in experiment [1]; 12.8 µM in experiment [2]; 14.9 µM in [3]; 11.1 µM in experiment [4]; 8.32 µM in experiment [5]; 14.2 µM in experiment [6]. The GI50 in experiment [7] was 9.2 µM; in [8], 3.68 µM; in [9], 39.9 µM. Further, the TGI in experiment [1] was 17.4 µM; in experiment [2] it was 44.7 µM; in [3], 43.2 µM; in [4], 31.9 µM; in [5] it was 35.6 µM; in experiment [6], 65.3 µM. Also, the TGI in [7] was 31.3 µM; in [8] it was 19.5 µM; in [9], > 100 µM.
Consider `C=C(C)C1Cc2c(cc(OC)c3c(=O)c4cccc(O)c4oc23)O1` (stereo unspecified), for which the TGI in experiment [1] is 30.2 µM; in experiment [2] it was > 100 µM; in experiment [3] it was 48.4 µM; in experiment [4] it was 17.4 µM; in [5], 47.6 µM; in experiment [6] it was 59.5 µM. The TGI in [7] was > 100 µM; in experiment [10], 41.6 µM; in experiment [9], 33.7 µM.
As to `CCN1/C(=C/C=C/c2n(-c3ccccc3)c3ccc(-c4nc5ccccc5s4)cc3[n+]2CC)N(c2ccccc2)c2ccc(-c3nc4ccccc4s3)cc21`, the GI50 was 0.387 µM in experiment [2]; 0.161 µM in experiment [3]; 0.426 µM in experiment [4]; 0.19 µM in experiment [5]; 0.533 µM in experiment [6]; 0.284 µM in experiment [7]. Further, the GI50 in experiment [8] was 0.303 µM. The TGI was > 50 µM in experiment [2]; 0.838 µM in [3]; > 50 µM in [4]; 1.68 µM in [5]; 5.08 µM in experiment [6]; > 50 µM in experiment [7]. In addition, the TGI in [8] was > 50 µM.
Regarding `N=C(N)c1ccc(OCCOCCOc2ccc(C(=N)N)cc2)cc1`, the GI50 in [1] was > 100 µM; in [2], > 100 µM; in [3] it was 39.5 µM; in [4], 89.1 µM; in [5] it was > 100 µM; in [6] it was 78 µM. Further, the GI50 is > 100 µM in experiment [7], 68.5 µM in experiment [8] and 44.7 µM in experiment [10]. For the same compound, the TGI in [1], in experiment [2], in experiment [3], in experiment [4], in experiment [5] and in [6] was > 100 µM throughout. The TGI in [7], in experiment [8] and in [10] was > 100 µM each time.
Consider `CCOc1ccccc1NC(=O)c1cc2ccccc2cc1O`, for which the GI50 in experiment [1] was 3.45 µM; in experiment [2], 2.67 µM; in experiment [3], 2.3 µM; in experiment [4], 2.49 µM; in experiment [5] it was 2.02 µM; in [6], 2.59 µM. The results for the GI50 in experiment [7], in [8] and in experiment [10] were 2.73 µM, 2.04 µM and 2.84 µM, respectively. Besides, the TGI in experiment [1] stood at 12.6 µM; in [2] it was 11.3 µM; in experiment [3], 10.2 µM; in experiment [4], 13.1 µM; in experiment [5], 4.19 µM; in experiment [6], 9.45 µM. Besides, the TGI was 10.1 µM in experiment [7], 6.56 µM in experiment [8] and 9.46 µM in experiment [10].
As for `CCCCCCc1cc2cc(-c3nc4ccccc4[nH]3)c(=Nc3ccccc3C)oc2cc1O`, the GI50 was 2.36 µM in experiment [1]; 1.81 µM in experiment [3]; 2.24 µM in experiment [4]; 2.37 µM in experiment [5]; 2.46 µM in [6]; 2.3 µM in experiment [7]. In addition, the figures for the GI50 in experiment [8], in [10] and in experiment [9] were 2.47 µM, 4.24 µM and 3.57 µM, respectively. The TGI in [1] is 9.74 µM; in experiment [3], 3.62 µM; in experiment [4] it was > 23.8 µM; in experiment [5], 6.4 µM; in experiment [6] it was 5.87 µM; in experiment [7], 7.98 µM. Besides, the TGI in experiment [8] stood at 7.86 µM; in experiment [10] it was 17.8 µM; in experiment [9], 13.7 µM.
On to `N#Cc1ncc(-c2ccc(C(F)(F)F)cc2)c(NCc2cc(C(F)(F)F)cc(C(F)(F)F)c2)n1`, for which the GI50 was 3.6 µM in [1]; 2.98 µM in experiment [3]; 2.74 µM in experiment [4]; 3.17 µM in [5]; 3.22 µM in [6]; 2.42 µM in experiment [7]. Also, the GI50 was 2.29 µM in [8], 2.78 µM in [10] and 5.23 µM in [9]. In addition, the TGI in [1] was 61.9 µM; in experiment [3], 8.89 µM; in experiment [4], > 100 µM; in experiment [5] it was 12.6 µM; in [6], 23.8 µM; in experiment [7] it was 8.48 µM. The TGI amounted to 5.87 µM in [8], 29.1 µM in experiment [10] and 47.3 µM in experiment [9].
`O=C(Nc1ccc(F)cc1)Nc1ccccc1CNc1nc(Nc2ccc(OCCN3CCCC3)cc2)ncc1Cl`: the GI50 in experiment [1] is 2.87 µM; in [2], 2.22 µM; in [3], 0.81 µM; in experiment [4] it was 1.37 µM; in experiment [5], 0.871 µM; in [6] it was 5.63 µM. The GI50 in experiment [7] was 1.67 µM; in experiment [8] it was 1.4 µM; in experiment [10], 1.97 µM. For the same compound, the TGI worked out at 9.25 µM in experiment [1]; 9.82 µM in experiment [2]; 1.55 µM in experiment [3]; 4.75 µM in experiment [4]; 1.77 µM in [5]; 13.1 µM in [6]. The TGI in experiment [7] stood at 6.19 µM; in experiment [8], 3.72 µM; in experiment [10] it was 7.67 µM.
